The text below walks through data of US12157730B2, “Heteroaryl derivative, method for producing same, and pharmaceutical composition comprising same as effective component” (VORONOI INC., priority 2019, dated 2024).

For the assay, the target named is T1, Ba/F3 cell EGFR Exon20 ins NPH (Homo sapiens, UniProt P00533, INS773NPH).
T1 construct: expressed in transfected cells; host or cells: Ba/F3
As to the kind of experiment: Ba/F3 cell proliferation suppression, EGFR Exon20 ins NPH. Particulars: GI50 class; Ba/F3 cell line with NPH inserted at Exon20 of EGFR; 72 hours. It is filed as cell-based. A digest of the protocol: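 Seed 3000–5000 cells/well; after 24 h add compound (12 conc., 0.3 nM–50 um final); incubate 72 h; add CellTiter-Glo, 10 min room temperature; read luminescence; GI50 from % growth vs control, triplicate.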

The structures appear in SMILES notation.

Regarding `C=CC(=O)Nc1cc(Nc2cc(N3OCC[C@@H]3c3ccccc3)ncn2)c(OC)cc1N1CCC(N2CCN(C3CCOCC3)CC2)CC1` [Example 102, N-(4-methoxy-5-((6-((R)-3-phenylisoxazolidine-2-yl)pyrimidine-4-yl)amino)-2-(4-(4-(tetrahydro-2H-pyran-4-yl)piperazine-yl)piperidine-yl)phenyl)acrylamide], the “Ba/F3 (NPH) Activity” value is recorded as “A (GI50 < 50 nM)”.
Next, `C=CC(=O)Nc1cc(Nc2cc(N3OCC[C@@H]3c3cc(F)cc(F)c3)ncn2)c(OC)cc1N1CCC(N2C[C@@H](C)N(C3CC3)C[C@@H]2C)CC1` [Example 108, N-(2-(4-((2S,5R)-4-cyclopropyl-2,5-dimethylpiperazine-1-yl)piperidine-1-yl)-5-((6-((R)-3-(3,5-difluorophenyl)isoxazolidine-2-yl)pyrimidine-4-yl)amino)-4-methoxyphenyl) acrylamide]: “A (GI50 < 50 nM)”; `C=CC(=O)Nc1cc(Nc2cc(N3OCC[C@@H]3c3ccc(C)nc3)ncn2)c(OC)cc1N1C[C@@H]2C[C@H]1CO2` [Example 233, N-(2-((1S,4S)-2-oxa-5-azabicyclo[2.2.1]heptane-5-yl)-4-methoxy-5-((6-((R)-3-(6-methylpyridine-3-yl)isoxazolidine-2-yl)pyrimidine-4-yl)amino)phenyl) acrylamide]: “C (500 nM ≤ GI50 < 5000 nM)”.
The value for `C=CC(=O)Nc1cc(Nc2cc(N3OCC[C@@H]3c3ccc(F)c(F)c3F)ncn2)c(OC)cc1N1CCC(N2C[C@@H]3C[C@H]2CO3)CC1` [compound 574, N-(2-(4-((1S,4S)-2-oxa-5-azabicyclo [2.2.1]heptane-5-yl)piperidine-1-yl)-4-methoxy-5-((6-((R)-3-(2,3,4-trifluorophenyl)isoxazolidine-2-yl)pyrimidine-4-yl)amino)phenyl)acrylamide] was “A (GI50 < 50 nM)”; that for `C=CC(=O)Nc1cc(Nc2cc(N3OCC[C@@H]3c3cc(F)cc(F)c3)ncn2)c(OC)cc1N1CCC(N2C[C@H]3CCN(C)[C@H]3C2)CC1` [compound 445, N-(5-((6-((R)-3-(3,5-difluorophenyl)isoxazolidine-2-yl)pyrimidine-4-yl)amino)-4-methoxy-2-(4-((3aR,6aR)-1-methylhexahydropyrrolo [3,4-b]pyrrole-5(1H)-yl)piperidine-1-yl)phenyl)acrylamide] was “A (GI50 < 50 nM)”; that for `C=CC(=O)Nc1cc(Nc2cc(N3OCC[C@@H]3c3c(F)ccc(F)c3F)ncn2)c(OC)cc1N1CCC(N2CCO[C@@H](C)C2)CC1` [compound 645, N-(4-methoxy-2-(4-((S)-2-methylmorpholino)piperidine-1-yl)-5-((6-((R)-3-(2,3,6-trifluorophenyl)isoxazolidine-2-yl)pyrimidine-4-yl)amino)phenyl)acrylamide] was “A (GI50 < 50 nM)”.
Turning to `C=CC(=O)Nc1cc(Nc2cc(N3OCC[C@@H]3c3cccc(F)c3F)ncn2)c(OC)cc1N1CCN(C)[C@H](C)C1` [compound 884, N-(5-((6-((R)-3-(2,3-difluorophenyl)isoxazolidine-2-yl)pyrimidine-4-yl)amino)-2-((R)-3,4-dimethylpiperazine-1-yl)-4-methoxyphenyl) acrylamide], the “Ba/F3 (NPH) Activity” value is reported as “A (GI50 < 50 nM)”.
Next, `C=CC(=O)Nc1cc(Nc2cc(N3OCC[C@@H]3c3ccc(F)c(F)c3F)ncn2)c(OC)cc1N1CCC(N2C[C@H]3C[C@@H]2CO3)CC1` [compound 575, N-(2-(4-((1R,4R)-2-oxa-5-azabicyclo [2.2.1]heptane-5-yl)piperidine-1-yl)-4-methoxy-5-((6-((R)-3-(2,3,4-trifluorophenyl)isoxazolidine-2-yl)pyrimidine-4-yl)amino)phenyl)acrylamide]: “A (GI50 < 50 nM)”; `C=CC(=O)Nc1cc(Nc2cc(N3OCC[C@@H]3c3cccc(Cl)c3C)ncn2)c(OC)cc1N1CCC(N2CCN(C3CCC3)CC2)CC1` [Example 188, N-(5-((6-((R)-3-(3-chloro-2-methylphenyl)isoxazolidine-2-yl)pyrimidine-4-yl)amino)-2-(4-(4-cyclobutylpiperazine-1-yl)piperidine-1-yl)-4-methoxyphenyl) acrylamide]: “A (GI50 < 50 nM)”; `C=CC(=O)Nc1cc(Nc2cc(N3OCC[C@@H]3c3cccc(Cl)c3)ncn2)c(OC)cc1N1CCC(N2CCN(C3COC3)CC2)CC1` [Example 199, N-(5-((6-((R)-3-(3-chlorophenyl)isoxazolidine-2-yl)pyrimidine-4-yl)amino)-4-methoxy-2-(4-(4-(oxetane-3-yl)piperazine-1-yl)piperidine-1-yl)phenyl)acrylamide]: “A (GI50 < 50 nM)”.
Consider `C=CC(=O)Nc1cc(Nc2cc(N3OCC[C@@H]3c3cccc(Cl)c3C)ncn2)c(OC)cc1N1CCC(N2C[C@H]3C[C@@H]2CO3)CC1` [compound 532, N-(2-(4-((1R,4R)-2-oxa-5-azabicyclo[2.2.1]heptane-5-yl)piperidine-1-yl)-5-((6-((R)-3-(3-chloro-2-methylphenyl)isoxazolidine-2-yl)pyrimidine-4-yl)amino)-4-methoxyphenyl) acrylamide], for which the “Ba/F3 (NPH) Activity” value is reported as “A (GI50 < 50 nM)”.
Regarding `C=CC(=O)Nc1cc(Nc2cc(N3OCC[C@@H]3c3cc(F)ccc3F)ncn2)c(OC)cc1N1CCC(N2CCN(C(C)C)CC2)CC1` [compound 303, N-(5-((6-((R)-3-(2,5-difluorophenyl)isoxazolidine-2-yl)pyrimidine-4-yl)amino)-2-(4-(4-isopropylpiperazine-1-yl)piperidine-1-yl)-4-methoxyphenyl) acrylamide], the “Ba/F3 (NPH) Activity” value is on record as “A (GI50 < 50 nM)”.
Next, `C=CC(=O)Nc1cc(Nc2cc(N3OCC[C@@H]3Cc3cccc(Cl)c3F)ncn2)c(OC)cc1N1CCC(N2CCN(C3CC3)CC2)CC1` [compound 1020, N-(5-((6-((S)-3-(3-chloro-2-fluorobenzyl)isoxazolidine-2-yl)pyrimidine-4-yl)amino)-2-(4-(4-cyclopropylpiperazine-1-yl)piperidine-1-yl)-4-methoxyphenyl) acrylamide]: “A (GI50 < 50 nM)”; `C=CC(=O)Nc1cc(Nc2cc(N3OCC[C@@H]3c3cccc(C)c3F)ncn2)c(OC)cc1N1CCC(N2C[C@@H]3C[C@H]2CO3)CC1` [compound 362, N-(2-(4-((1S,4S)-2-oxa-5-azabicyclo[2.2.1]heptane-5-yl)piperidine-1-yl)-5-((6-((R)-3-(2-fluoro-3-methylphenyl)isoxazolidine-2-yl)pyrimidine-4-yl)amino)-4-methoxyphenyl) acrylamide]: “A (GI50 < 50 nM)”.
Next, `C=CC(=O)Nc1cc(Nc2cc(N3OCC[C@@H]3c3cc(F)ccc3F)ncn2)c(OC)cc1N1CCN(C2CC2)C[C@@H]1C` [compound 879, N-(2-((S)-4-cyclopropyl-2-methylpiperazine-1-yl)-5-((6-((R)-3-(2,5-difluorophenyl)isoxazolidine-2-yl)pyrimidine-4-yl)amino)-4-methoxyphenyl) acrylamide]: “A (GI50 < 50 nM)”; `C=CC(=O)Nc1cc(Nc2cc(N3OCC[C@@H]3c3ccc(F)c(F)c3)ncn2)c(OC)cc1N1CCN(C)CC1` [compound 458, N-(5-((6-((R)-3-(3,4-difluorophenyl)isoxazolidine-2-yl)pyrimidine-4-yl)amino)-4-methoxy-2-(4-methylpiperazine-1-yl)phenyl)acrylamide]: “A (GI50 < 50 nM)”; `C=CC(=O)Nc1cc(Nc2cc(N3OCC[C@@H]3c3cccc(F)c3Cl)ncn2)c(OC)cc1N1CCC(N2CCN(C(C)C)CC2)CC1` [compound 661, N-(5-((6-((R)-3-(2-chloro-3-fluorophenyl)isoxazolidine-2-yl)pyrimidine-4-yl)amino)-2-(4-(4-isopropylpiperazine-1-yl)piperidine-1-yl)-4-methoxyphenyl) acrylamide]: “A (GI50 < 50 nM)”.
The value for `C=CC(=O)Nc1cc(Nc2cc(N3OCC[C@@H]3c3ccc(Cl)cc3)ncn2)c(OC)cc1N1CCC(N2C[C@@H](C)O[C@@H](C)C2)CC1` [compound 868, N-(5-((6-((R)-3-(4-chlorophenyl)isoxazolidine-2-yl)pyrimidine-4-yl)amino)-2-(4-((2S,6R)-2,6-dimethylmorpholino)piperidine-1-yl)-4-methoxyphenyl) acrylamide] was “A (GI50 < 50 nM)”; that for `C=CC(=O)Nc1cc(Nc2cc(N3OCC[C@@H]3c3ccc4ccccc4c3)ncn2)c(OC)cc1N1CCC(N2CCN(C3COC3)CC2)CC1` [Example 200, N-(4-methoxy-5-((6-((R)-3-(naphthalene-2-yl)isoxazolidine-2-yl)pyrimidine-4-yl)amino)-2-(4-(4-(oxetane-3-yl)piperazine-1-yl)piperidine-1-yl)phenyl)acrylamide] was “B (50 nM ≤ GI50 < 500 nM)”.
Consider `C=CC(=O)Nc1cc(Nc2cc(N3OCC[C@@H]3Cc3cccc(Cl)c3F)ncn2)c(OC)cc1N1CCN(C2CC2)CC1` [compound 1017, N-(5-((6-((S)-3-(3-chloro-2-fluorobenzyl)isoxazolidine-2-yl)pyrimidine-4-yl)amino)-2-(4-cyclopropylpiperazine-1-yl)-4-methoxyphenyl) acrylamide], for which the “Ba/F3 (NPH) Activity” value is “A (GI50 < 50 nM)”.
Next, `C=CCN1CCN(C2CCN(c3cc(OC)c(Nc4cc(N5OCC[C@@H]5c5cccc(C#N)c5)ncn4)cc3NC(=O)C=C)CC2)CC1` [Example 210, N-(2-(4-(4-allylpiperazine-1-yl)piperidine-1-yl)-5-((6-((R)-3-(3-cyanophenyl)isoxazolidine-2-yl)pyrimidine-4-yl)amino)-4-methoxyphenyl) acrylamide]: “A (GI50 < 50 nM)”.
